# Publication PMC11747885, “Potent inhibitors of the human RNA ligase Rlig1 highlights its role in RNA integrity maintenance under oxidative cellular stress” (Chemical Science, 2025)
# Values joined by “and” are separate entries in the source; they are usually repeats but may differ in a detail not shown here. Equal values may be shown once. “Also recorded” adds a separate entry of the source. Read-outs that look alike come from different tables or passages of the source. Marks after values point to notes of the source that are not given here.
# How the values were obtained:
# [1] = target: T1, Rlig1-AMP (Homo sapiens, UniProt Q8N999); experiment: FRET-based high-throughput screening of inhibitors for Rlig1-AMP; assay type: biochemical; settings: sheet HTS hits; for 1-D Distance: difference of raw data w/o and w enzyme; for Raw data [w Enyzm]: with enzyme; for Raw data [w/o Enzym]: without enzyme; for 1-D Distance.npi: MedChemExpress library
# T1 construct: made in house; host or cells: E. coli BL21 (DE3), pET15b-Rlig1
# [2] = ref MedChemExpress, cited from earlier work; for solubility, DMSO: in DMSO; for solubility, H2O: in H2O
# [3] = target: T1, Rlig1-AMP; experiment: Radioactive RNA ligation assay (hit validation, 10 µM test and IC50 determination); assay type: biochemical; settings: for IC50: n = 3
# [4] = Cell viability assay of HEK293 cells treated with inhibitors and menadione; assay type: cell-based, human; settings: human, HEK293 cells, w/o Menadione; for viability at 7.5 µM: 7.5 µM compound; for viability at 15 µM: 15 µM compound; for viability at 30 µM: 30 µM compound; for viability at 60 µM: 60 µM compound
# [5] = test system: HEK293 cells; experiment: as above; assay type: cell-based, human; settings: for Mean Diff, (Predicted (LS) mean diff,) w/o menadione - w menadione: 2 way ANOVA, Šídák's multiple comparisons test, normalised viability
# [6] = in vitro; settings: human
# [7] = test system: HEK293 cells; experiment: Cell viability assay of HEK293 cells treated with inhibitors (CellTiter-Glo)
# [8] = log(inhibitor) vs. response, variable slope (four parameters)
# [9] = 20240508 plate 012, DMSO Ko no Mendione = 100
# [10] = 20240508 plate 013, DMSO Ko no Mendione = 100
# [11] = 20240515 plate 014, DMSO Ko no Mendione = 100
# [12] = 20240515 plate 015, DMSO Ko no Mendione = 100
# T1 sequence (Q8N999 whole entry): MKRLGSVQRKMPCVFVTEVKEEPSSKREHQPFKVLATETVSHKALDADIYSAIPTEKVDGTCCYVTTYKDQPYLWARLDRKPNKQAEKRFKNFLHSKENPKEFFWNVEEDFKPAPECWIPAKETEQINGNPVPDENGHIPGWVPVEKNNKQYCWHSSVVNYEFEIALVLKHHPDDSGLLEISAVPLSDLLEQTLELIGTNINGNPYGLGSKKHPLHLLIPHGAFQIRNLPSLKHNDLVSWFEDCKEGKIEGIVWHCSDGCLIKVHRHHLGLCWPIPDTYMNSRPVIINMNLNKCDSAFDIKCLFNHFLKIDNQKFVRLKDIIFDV
smiles,measurement,setting,value
COC(=O)c1cc(OC)c2c(c1-c1c(C(=O)OC)cc(OC)c3c1OCO3)OCO2 [Bifendate],1-D Distance,[1],1790
same,Raw data [w Enyzm],[1],9076
same,Raw data [w/o Enzym],[1],10866
same,"solubility, DMSO",[2],50 mg/mL
same,"solubility, H2O",[2],1 mg/mL
CCCCCCCCCCCCCCCC[n+]1ccccc1.O.[Cl-] [Cetylpyridinium (chloride monohydrate)],"solubility, DMSO",[2],20 mg/mL
same,"solubility, H2O",[2],≥ 100 mg/mL
CCCCCCCCCCCCCCCC[n+]1ccccc1.[Cl-] [Cetylpyridinium (chloride)],"solubility, DMSO",[2],DMSO : 100 mg/mL (294.13 mM; Need ultrasonic); H2O : 100 mg/mL (294.13 mM; Need ultrasonic)
same,"solubility, H2O",[2],DMSO : 100 mg/mL (294.13 mM; Need ultrasonic); H2O : 100 mg/mL (294.13 mM; Need ultrasonic)
Cc1cc(Nc2ccc(NC(=O)c3ccc(Nc4ncnc5ccccc45)cc3)cc2)nc(N)n1 [Compound 45],inhibition of Rlig1-AMP ligation (urea-PAGE),"[3]; 10 μM compound, 500 nM Rlig1-AMP, 20 min 37 °C",Ligation was inhibited; also recorded: inhibited ligase activity
same,HillSlope (best-fit value),[3]; four-parameter fit,4.095
same,Span (best-fit value),[3]; four-parameter fit,90.88
same,IC50,"[3]; four-parameter fit, read-out: IC50 (best-fit value)",7.02 µM
same,inhibition at 30 µM,"[3]; log Compound [µM] 1.47712, replicates I-III, read-out: percentage inhibition (dose response curve for IC50)",100%
same,LogIC50 (best-fit value),"[3]; log of µM, four-parameter fit",0.8461
same,Bottom (best-fit value),[3]; [8],7.303
same,Top (best-fit value),[3]; [8],98.18
same,IC50,"[3]; radioactive ligation assay, 500 nM Rlig1-AMP, 20 min 37 °C, read-out: IC50",7.02 µM
same,viability at 7.5 µM,[4]; [9],99.2%
same,viability at 7.5 µM,[4]; [10],99.9%
same,viability at 7.5 µM,[4]; [11],95.1%
same,viability at 7.5 µM,[4]; [12],102%
same,viability at 15 µM,[4]; [9],95.2%
same,viability at 15 µM,[4]; [10],92.3%
same,viability at 15 µM,[4]; [11],81.5%
same,viability at 15 µM,[4]; [12],84.3%
same,viability at 30 µM,[4]; [9],80.9%
same,viability at 30 µM,[4]; [10],93.3%
same,viability at 30 µM,[4]; [11],67.5%
same,viability at 30 µM,[4]; [12],77.5%
same,viability at 60 µM,[4]; [11],61.3%
same,viability at 60 µM,[4]; [12],65.6%
same,"Mean Diff, (Predicted (LS) mean diff,) w/o menadione - w menadione",[5]; 7.5 µM compound,24.88
same,"Cell viability raw signal, technical replicates","[5]; 7.5 µM compound, w Menadione (40µM), 20240508 plate 012",16292 and 19945 and 19668 and 21930
same,"Cell viability raw signal, technical replicates","[5]; 7.5 µM compound, w Menadione (40µM), 20240508 plate 013",13213 and 13818 and 17967 and 18789
same,"Cell viability raw signal, technical replicates","[5]; 7.5 µM compound, w Menadione (40µM), 20240515 plate 014",24555 and 24471 and 26313 and 33654
same,"Cell viability raw signal, technical replicates","[5]; 7.5 µM compound, w Menadione (40µM), 20240515 plate 015",35092 and 33991 and 36306 and 39027
same,"Cell viability raw signal, technical replicates","[5]; 7.5 µM compound, w/o Menadione, 20240508 plate 012",424180 and 398710 and 420300 and 419520
same,"Cell viability raw signal, technical replicates","[5]; 7.5 µM compound, w/o Menadione, 20240508 plate 013",399000 and 385630 and 399650 and 394170
same,"Cell viability raw signal, technical replicates","[5]; 7.5 µM compound, w/o Menadione, 20240515 plate 014",359950 and 358800 and 374740 and 459430
same,"Cell viability raw signal, technical replicates","[5]; 7.5 µM compound, w/o Menadione, 20240515 plate 015",358750 and 400730 and 451820 and 450580
same,"Mean Diff, (Predicted (LS) mean diff,) w/o menadione - w menadione",[5]; 15 µM compound,16.86
same,"Cell viability raw signal, technical replicates","[5]; 15 µM compound, w Menadione (40µM), 20240508 plate 012",17222 and 18766 and 16741 and 22933
same,"Cell viability raw signal, technical replicates","[5]; 15 µM compound, w Menadione (40µM), 20240508 plate 013",19848 and 20626 and 16969 and 23253
same,"Cell viability raw signal, technical replicates","[5]; 15 µM compound, w Menadione (40µM), 20240515 plate 014",32272 and 27116 and 27955 and 28425
same,"Cell viability raw signal, technical replicates","[5]; 15 µM compound, w Menadione (40µM), 20240515 plate 015",25226 and 26073 and 29252 and 24387
same,"Cell viability raw signal, technical replicates","[5]; 15 µM compound, w/o Menadione, 20240508 plate 012",374870 and 367440 and 401070 and 451770
same,"Mean Diff, (Predicted (LS) mean diff,) w/o menadione - w menadione",[5]; 30 µM compound,21.74
same,"Cell viability raw signal, technical replicates","[5]; 30 µM compound, w Menadione (40µM), 20240508 plate 012",97659* and 121480* and 17759 and 18485
same,"Cell viability raw signal, technical replicates","[5]; 30 µM compound, w Menadione (40µM), 20240508 plate 013",90653* and 101750* and 11751 and 20016
same,"Cell viability raw signal, technical replicates","[5]; 30 µM compound, w Menadione (40µM), 20240515 plate 014",23460 and 20263 and 23532 and 25800
same,"Cell viability raw signal, technical replicates","[5]; 30 µM compound, w Menadione (40µM), 20240515 plate 015",18936 and 15616 and 21631 and 19990
same,"Cell viability raw signal, technical replicates","[5]; 30 µM compound, w/o Menadione, 20240508 plate 012",326400 and 344550 and 324690 and 360730
same,"Cell viability raw signal, technical replicates","[5]; 30 µM compound, w/o Menadione, 20240508 plate 013",380950 and 384250 and 337920 and 371050
same,"Cell viability raw signal, technical replicates","[5]; 30 µM compound, w/o Menadione, 20240515 plate 014",277620 and 270780 and 277750 and 275770
same,"Cell viability raw signal, technical replicates","[5]; 30 µM compound, w/o Menadione, 20240515 plate 015",297120 and 296520 and 307370 and 366230
same,"Mean Diff, (Predicted (LS) mean diff,) w/o menadione - w menadione",[5]; 60 µM compound,16.46
same,"Cell viability raw signal, technical replicates","[5]; 60 µM compound, w Menadione (40µM), 20240515 plate 014",18908 and 18178 and 17095 and 16101
same,"Cell viability raw signal, technical replicates","[5]; 60 µM compound, w Menadione (40µM), 20240515 plate 015",15825 and 18398 and 15296 and 15572
same,"Cell viability raw signal, technical replicates","[5]; 60 µM compound, w/o Menadione, 20240515 plate 014",265840 and 239610 and 250590 and 244440
same,"Cell viability raw signal, technical replicates","[5]; 60 µM compound, w/o Menadione, 20240515 plate 015",267940 and 266670 and 268950 and 268790
same,"viability at 24 h, 0.234375 µM",[6],110%
same,"viability at 24 h, 0.46875 µM",[6],101%
same,"viability at 24 h, 0.9375 µM",[6],105%
same,"viability at 24 h, 1.875 µM",[6],100%
same,"viability at 24 h, 3.75 µM",[6],103%
same,"viability at 24 h, 7.5 µM",[6],97.1%
same,"viability at 24 h, 15 µM",[6],90.2%
same,"viability at 24 h, 30 µM",[6],88.8%
same,cytotoxicity (in words),"[7]; HEK293, 24 h, up to 30 μM",no detectable cytotoxicity
same,IC50 (Figure 3D: EC50 values for plot; log(inhibitor) vs. response -- Variable slope (four parameters)),"[7]; HEK293 cell viability, fit per plate (3 plates, 4 technical replicates each), highest tested concentration 30 µM",336.896 µM and 119.897 µM and 368.238 µM
same,LogIC50 (log(inhibitor) vs. response -- Variable slope (four parameters)),"[7]; HEK293 cell viability, fit per plate (3 plates, 4 technical replicates each), log of [µM]",2.5275 and 2.079 and 2.566
same,EC50,"[7]; Homo sapiens, HEK293, 24 h",> 30 µM
COc1cccc2c1C(=O)c1c(O)c3c(c(O)c1C2=O)C[C@@](O)(C(C)=O)C[C@@H]3O[C@H]1C[C@H](N)[C@H](O)[C@H](C)O1.Cl [Daunorubicin (hydrochloride)],1-D Distance.npi,[1],94.9773
same,1-D Distance,[1],667
same,Raw data [w Enyzm],[1],1522
same,Raw data [w/o Enzym],[1],2189
same,"solubility, DMSO",[2],50 mg/mL
same,"solubility, H2O",[2],≥ 34 mg/mL
C[C@]12C=CC(=O)N[C@@H]1CC[C@@H]1[C@@H]2CC[C@]2(C)[C@@H](C(=O)Nc3cc(C(F)(F)F)ccc3C(F)(F)F)CC[C@@H]12 [Dutasteride],1-D Distance,[1],1706
same,Raw data [w Enyzm],[1],9054
same,Raw data [w/o Enzym],[1],10760
same,"solubility, DMSO",[2],DMSO : 33.33 mg/mL (63.06 mM; Need ultrasonic)
CC1=NN(c2ccc(C)c(C)c2)C(=O)/C1=N\Nc1cccc(-c2cccc(C(=O)O)c2)c1O [Eltrombopag],1-D Distance,[1],1388
same,Raw data [w Enyzm],[1],3742
same,Raw data [w/o Enzym],[1],5130
same,"solubility, DMSO",[2],8.33 mg/mL
same,"solubility, H2O",[2],< 0.1 mg/mL
COC(=O)/C=C/c1ccc(O)c(O)c1 [Methyl caffeate],1-D Distance,[1],1343
same,Raw data [w Enyzm],[1],9476
same,Raw data [w/o Enzym],[1],10819
same,"solubility, DMSO",[2],DMSO : 33.33 mg/mL (171.64 mM; ultrasonic and warming and heat to 60°C)
[N-]=[N+]=NCCOCCOCCOCCN(CCOCCOCCN)CCOCCOCCOCCN=[N+]=[N-] [N-(Amino-PEG2)-N-bis(PEG3-azide)],1-D Distance.npi,[1],72.3118
same,1-D Distance,[1],1919
same,Raw data [w Enyzm],[1],9036
same,Raw data [w/o Enzym],[1],10955
same,"solubility, DMSO",[2],DMSO : 100 mg/mL (181.60 mM; Need ultrasonic)
